# Like-named read-outs stand apart in the source and are kept apart here.
# Legend:
# PDAC organoids = conditions: Shinkawa T et al, 2022; cited from earlier work
# CFPAC1 cells = conditions: Raghavan et al., 2021; cited from earlier work
# [1] = test system: docetaxel resistant DU145 cells; test: WST-1 cell viability, docetaxel-resistant DU145 cells; type: cell-based; conditions: for IC50: docetaxel resistant DU145 cells, 72-hour drug exposure, WST-1, read-out: mean half maximal inhibitory concentration (IC50)
# Procedure: A DU145 prostate cancer cell line was obtained from American Type Culture […] (ATCC) and cultured in RPMI 1640 medium (Thermo Fisher Scientific), supplemented with 10% fetal bovine serum (FBS) (Gibco, Thermo Fisher Scientific) and maintained at 37° C. with 5% CO2. A docetaxel-resistant cell line model for DU145 was established by chronically exposing the parent cell line to stepwise increasing concentrations of docetaxel as previously described(41,42). Both cell lines were periodically monitored for mycoplasma using the Universal Mycoplasma Detection Kit following the manufacturer's protocol (A TCC). In vitro drug screening in both the docetaxei-resistant and control DU145 nodels was performed using either vemurafenib (PLX4032; CAS No. 918504-65-1) or docetaxel (RP-56976; CAS No. 114977-28-5) obtained from MedChem Express (Monmriouth Junction NJ, USA) dissolved in dimethylsulfoxide (DMSO) to obtain stock concentrations of 100 mM for vemurafenib or 5 mM for docetaxel.
# (§1) Docetaxel-resistant and control DU145 cells were trypsinized, harvested, counterstained with Hoechst 33342 Fluorescent Stain (Thermo Scientific, Pierce Biotechnology, Rockford, IL) and resuspended in full growth media to 5×10^4 cells per mL prior to plating in 96-well microplates (Thermo Scientific) using a seeding density of 5×10^3 cells per well and allowed to attach for 24 hours. Following incubation, cells were treated with different concentrations of either docetaxel ranging from 0.92 nM to 6 uM, or vemurafenib ranging from 2.5 uM to 50 uM. Cell viability for each well was measured following a 72-hour drug exposure using the WST-1 assay [(Roche Applied. Science, Penzberg, Upper Bavaria, Germany) following the manufacturer's protocol. Absorbance at the 450 nm wavelength was assessed using the Synergy HTX Multi-Mode Plate Reader (BioTek, Winooski, VT)]. Absorbance values for each well were used to calculate percent viability relative to the no drug condition. […]
# mesoderm-like cells = conditions: RMS oPDX, Patel et al., 2022; cited from earlier work
# [2] = test system: docetaxel sensitive DU145 cells; test: WST-1 cell viability, docetaxel-sensitive (control) DU145 cells; type: cell-based; conditions: Homo sapiens, DU-145, 72-hour drug exposure
# Procedure: A DU145 prostate cancer cell line was obtained from American Type Culture […] (ATCC) and cultured in RPMI 1640 medium (Thermo Fisher Scientific), supplemented with 10% fetal bovine serum (FBS) (Gibco, Thermo Fisher Scientific) and maintained at 37° C. with 5% CO2. A docetaxel-resistant cell line model for DU145 was established by chronically exposing the parent cell line to stepwise increasing concentrations of docetaxel as previously described(41,42). Both cell lines were periodically monitored for mycoplasma using the Universal Mycoplasma Detection Kit following the manufacturer's protocol (A TCC). […]
# as §1, with “Following incubation, cells were treated with different concentrations of either docetaxel ranging from 0.92 nM to 6 uM, or vemurafenib ranging from 2.5 uM to 50 uM.” left out, “VT)].” for “VT)]. Absorbance values for each well were used to calculate percent viability relative to the no drug condition.”
# [3] = patients, cited from earlier work
compound,measurement,setting,value
Nc1ccn([C@@H]2O[C@H](CO)[C@@H](O)C2(F)F)c(=O)n1 [Gemcitabine],response of basal-like vs classical-like PDAC organoids,PDAC organoids,higher resistance
CC(=O)O[C@H]1C(=O)[C@@]2(C)[C@H]([C@H](OC(=O)c3ccccc3)[C@]3(O)C[C@H](OC(=O)[C@H](O)[C@@H](NC(=O)c4ccccc4)c4ccccc4)C(C)=C1C3(C)C)[C@]1(OC(C)=O)CO[C@@H]1C[C@@H]2O [Paclitaxel],response of CFPAC1 cells grown in complete classical organoid media,CFPAC1 cells,responsive
CCc1c2c(nc3ccc(O)cc13)-c1cc3c(c(=O)n1C2)COC(=O)[C@]3(O)CC [SN-38],response of CFPAC1 cells grown in complete classical organoid media,CFPAC1 cells,responsive
CC(=O)O[C@@]12CO[C@@H]1C[C@H](O)[C@@]1(C)C(=O)[C@H](O)C3=C(C)[C@@H](OC(=O)[C@H](O)[C@@H](NC(=O)OC(C)(C)C)c4ccccc4)C[C@@](O)([C@@H](OC(=O)c4ccccc4)[C@H]21)C3(C)C [docetaxel],"percent viability, resistant vs sensitive DU145 cells","[1]; docetaxel exposure, FIG. 9, two-way ANOVA",higher resistance
CCc1c2c(nc3ccc(OC(=O)N4CCC(N5CCCCC5)CC4)cc13)-c1cc3c(c(=O)n1C2)COC(=O)[C@]3(O)CC [irinotecan],response of mesoderm-like cells compared to myoblast cells,mesoderm-like cells,highly resistant
CCCS(=O)(=O)Nc1ccc(F)c(C(=O)c2c[nH]c3ncc(-c4ccc(Cl)cc4)cc23)c1F [vemurafenib],IC50,[2],27.9 µM
same,IC50,"[1]; Homo sapiens, DU-145, 72 h",12.8 µM
same,IC50,[1],12.9 µM
same,average maximum serum concentration (Cmax),"[3]; previous trial (Zhang W et al., 2017)",61.4 µg/mL
same,average maximum serum concentration (Cmax),"[3]; previous trial, equivalent of 61.4 μg/mL",125.3 μM/L
same,tolerability at Cmax,[3]; previous trial,well tolerated

# Source: patent US20250066840A1, “Single-cell RNA sequencing analysis pipeline for predicting cell sensitivities to various drugs” (Regents of the University of Minnesota, priority 2023, published 2025)
